Literature values as cited in paper PMC11333285, “Inhibition of lysine acetyltransferase KAT6 in ER^+HER2^− metastatic breast cancer: a phase 1 trial” (Nature Medicine, 2024).
Read-outs that look alike come from different tables or passages of the source.

How the values were obtained:
mBC with ESR1 mutations = test system: mBC with ESR1 mutations; parameters: method as in PMID 35584336; details: patients with ESR1 mutations
HR+/HER2− mBC [1] = test system: HR+/HER2− mBC; parameters: method as in PMID 34357781; details: HR+/HER2− mBC progressed after aromatase inhibitors
HR+/HER2− mBC [2] = test system: HR+/HER2− mBC; parameters: method as in PMID 35583555, PMID 35584336; details: all comers after first-line CDK4/6 inhibitors and ET

## CCNCCc1ccc(CN(CC)c2cc(OC)ccc2[C@@H]2CCc3cc(O)ccc3C2)cc1 [elacestrant]
mBC with ESR1 mutations
  mPFS: 3.8 months

## Nc1ccccc1NC(=O)c1ccc(CNC(=O)OCc2cccnc2)cc1 [entionostat plus ET]
HR+/HER2− mBC [1]
  mPFS: 3.3 months

## C[C@]12CC[C@@H]3c4ccc(O)cc4C[C@@H](CCCCCCCCC[S+]([O-])CCCC(F)(F)C(F)(F)F)[C@H]3[C@@H]1CC[C@@H]2O (stereo partly shown) [fulvestrant]
HR+/HER2− mBC [2]
  CBR: 13.7%
  mPFS: 2 months
